Reference: US9642381B2, “Orally consumable formulations comprising certain sweet-tasting triterpenes and triterpene glycosides” (Symrise AG, priority 2011, dated 2017)

Key:
Assay type in all cases: in vivo, human
group of experts [1] = experiment: Sensory evaluation of Balansin A and Balansin B by a group of experts; conditions: 50 ppm in water and in a 5 wt % aqueous saccharose solution; Balansin A described in the aqueous solution
From the text: A group of experts tasted and sensorily evaluated the two isolated compounds Balansin A and Balansin B from Example 4, each at a concentration of 50 ppm in water and a 5 wt % aqueous saccharose solution.

[2] = tested on: group of at least five persons; experiment: Intrinsic sweetness against a saccharose reference series (saccharose equivalents); conditions: 50 ppm, against saccharose reference series in water
From the text: To determine the sweet impression of the extracts according to the invention or of the compounds according to the invention of the formula (I) compared to an aqueous saccharose solution, an aqueous solution of one or a plurality of compounds of the formula (I) is produced in the same concentration as is present in the orally consumable formulation under study. This aqueous solution is then compared and rated for taste by a group of at least five persons against a reference series of different saccharose concentrations in water. In this way, the saccharose equivalence is determined (indicated in saccharose equivalents), in other words, the concentration of the saccharose solution, whose sweet impression is equivalent to the sweet impression of the concentration of compounds of the formula (I). Preferred concentrations of the saccharose reference solution are 0; 0.25; 0.5; 0.75; 1; 1.5; 2; 3; 4 and 5 wt % saccharose in water. If necessary, other concentrations, particularly higher concentrations, can also be used for the reference series. The ascertained saccharose equivalent is obtained from the mean value of the individual rating of the individual panelists. The panelists are preferably persons who have experience in the field of tasting, are of different age and gender and come from different backgrounds. […]

group of experts [3] = experiment: Reinforcing the sweet impression of a 5 wt % saccharose solution; conditions: for % Reinforcement of the sweet impression: versus saccharose solution alone; for Sweet impression (1-10) with: rating 1 [not sweet] to 10 [extremely sweet]
Experimental: In order to quantify the reinforcement of the sweet impression, the sweetness of a 5 wt %-containing saccharose solution and of a sample which contained 5 wt % saccharose and a quantity of the test substance or test extract was determined by a group of experts (rating 1 [not sweet] to 10 [extremely sweet]). The analysis was performed as a calculation of the […] (in %) of the sweet impression from the average values of the assessments of the saccharose solution and of the solution containing saccharose and Compound 2 (p was determined as a significance measure according to the paired, two-tailed Student's statistical test).

[4] = 25 ppm in 5 wt % saccharose solution
[5] = 50 ppm in 5 wt % saccharose solution

Row | SMILES | Sensory evaluation (taste description) (group of experts [1]) | Intrinsic sweetness, equivalent to the sweetness of saccharose [2] [% saccharose] | % Reinforcement of the sweet impression (group of experts [3]; [4]) | Sweet impression (1-10) with (group of experts [3]; [4]) | % Reinforcement of the sweet impression (group of experts [3]; [5]) | Sweet impression (1-10) with (group of experts [3]; [5])
1 | CC(C)(O)C(O)C/C=C(\CO)[C@H]1CC[C@]2(C)[C@@H]1CC[C@@H]1[C@@]3(C)CC[C@H](O[C@@H]4O[C@H](CO)[C@@H](O)[C@H](O)[C@H]4OC4O[C@H](CO)[C@@H](O)[C@H](O)[C@H]4O)C(C)(C)[C@@H]3CC[C@]12C (some centres unmarked) [Balansin A] | intensely sweet, also as slightly bitter and displayed a sweetener-type note | 2 | 48% (p < 0.00005) | 7.2 ± 1.4 |  | 
2 | CC(C)(O)C(O)C/C=C(\CO)[C@H]1CC[C@]2(C)[C@@H]1CC[C@@H]1[C@@]3(C)CC[C@H](O[C@@H]4O[C@H](COC5OC(CO)[C@@H](O)[C@H](O)[C@H]5O)[C@@H](O)[C@H](O)[C@H]4OC4O[C@H](CO)[C@@H](O)[C@H](O)[C@H]4O)C(C)(C)[C@@H]3CC[C@]12C (some centres unmarked) [Balansin B] | slightly bitter, slightly sweetener-type and weakly ethanolic, but otherwise displayed no noticeable intrinsic taste | 1 |  |  | 31% (p < 0.0005) | 6.7 ± 1.1
